Reference: the supplement of paper PMC10307832

Legend:
Assay in all cases: relative viability (nuclei count vs DMSO), 5 days (fraction); higher = more cells survive
[1] = compound: C1=CC2=NC=CN=C2C=C1/C=C/3\C(=O)NC(=O)S3 + CCNC(=O)c1noc(-c2cc(C(C)C)c(O)cc2O)c1-c1ccc(CN2CCOCC2)cc1 [Luminespib] (partner 0.01 µM)
Method in brief: (§1)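 Values are medians from duplicate plates. Each reflects relative viability, defined as the nuclei count of treated wells over that of vehicle wells. Lung cancer cell lines in 1536-well plates were pin-tool dosed one day after seeding with one drug alone or with a fixed anchor-drug dose plus five library-drug doses (not always all listed) in √10 steps, then fixed, stained and imaged at 4× after 5 days.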

[2] = compound: C1=CC2=NC=CN=C2C=C1/C=C/3\C(=O)NC(=O)S3 + N=C(N)NC(=N)NCCc1ccccc1 [Phenformin] (partner 250 µM)
Method in brief: as §1

[3] = compound: CCN1CCN(c2ccc(Nc3cc(N(C)C(=O)Nc4c(Cl)c(OC)cc(OC)c4Cl)ncn3)cc2)CC1 [BGJ398] + CCNC(=O)c1noc(-c2cc(C(C)C)c(O)cc2O)c1-c1ccc(CN2CCOCC2)cc1 [Luminespib] (partner 0.01 µM)
Method in brief: as §1

[4] = compound: CCN1CCN(c2ccc(Nc3cc(N(C)C(=O)Nc4c(Cl)c(OC)cc(OC)c4Cl)ncn3)cc2)CC1 [BGJ398] + N=C(N)NC(=N)NCCc1ccccc1 [Phenformin] (partner 250 µM)
Method in brief: as §1

Work on UMC-11 yielded a relative viability ([1]; first compound 0.02 µM) of 0.992, a relative viability ([1]; first compound 0.06325 µM) of 1.11 and a relative viability ([1]; first compound 0.2 µM) of 1.05. For the same cell line, the relative viability ([1]; first compound 0.6325 µM) was 0.956, the relative viability ([1]; first compound 2 µM) was 1.16 and the relative viability ([2]; first compound 0.02 µM) was 0.329. For the same cell line, the relative viability ([2]; first compound 0.06325 µM) was 0.335, the relative viability ([2]; first compound 0.2 µM) was 0.373 and the relative viability ([2]; first compound 0.6325 µM) was 0.338. It also gave a relative viability ([2]; first compound 2 µM) of 0.331, a relative viability ([3]; first compound 0.01 µM) of 1.02 and a relative viability ([3]; first compound 0.03162 µM) of 1.08. For the same cell line, the relative viability ([3]; first compound 0.1 µM) was 0.994, the relative viability ([3]; first compound 0.3162 µM) was 0.984 and the relative viability ([3]; first compound 1 µM) was 1.01. The relative viability ([4]; first compound 0.01 µM) was 0.325, the relative viability ([4]; first compound 0.03162 µM) was 0.344 and the relative viability ([4]; first compound 0.1 µM) was 0.391. For the same cell line, the relative viability ([4]; first compound 0.3162 µM) was 0.341 and the relative viability ([4]; first compound 1 µM) was 0.341.
